Test systems include SN12C; NCI-H23; MOLT-4; CCRF-CEM; T47D; NCI/ADR-RES; A498; MDA-MB-435; HCT-15; BT-549; TK-10; MDA-N; M14; OVCAR-4; OVCAR-5; SF-539; 786-0; NCI-H226; NCI-H522; SNB-75.
What all share (test): NCI tumour cell line growth inhibition, 48 h

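How tested: cells in 96-well plates exposed to compound for 48 hours at five concentrations. GI50 marks 50% less growth.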 The source made the active and inactive calls. Rule as the data show it: active = GI50 up to about 1.1 µM and inactive = higher. Bounds are passed on as bounds.

For `CN(C)c1ccc(/N=N/c2ccncc2)cc1`, the GI50 is > 100 µM (inactive) in the experiment with SN12C; > 100 µM (inactive) in the experiment on NCI-H23; 39.8 µM (inactive) with MOLT-4; > 100 µM (inactive) in the experiment on CCRF-CEM; > 100 µM (inactive) with T47D; 31.2 µM (inactive) in the experiment on NCI/ADR-RES. The GI50 was > 100 µM (inactive) with A498; 28.8 µM (inactive) with MDA-MB-435; > 100 µM with HCT-15; 84.1 µM (inactive) in the experiment with BT-549; > 100 µM (inactive) with TK-10; 46 µM (inactive) in the experiment with MDA-N. Besides, the GI50 in the experiment on M14 was > 100 µM (inactive); with OVCAR-4, 48.1 µM (inactive); in the experiment on OVCAR-5 it was > 100 µM (inactive); in the experiment on SF-539, > 100 µM (inactive); in the experiment on 786-0, > 100 µM (inactive); in the experiment on NCI-H226, 64.4 µM (inactive).

As for `COc1cccc(/C=C2\S/C(=N/Nc3nc(-c4ccc([N+](=O)[O-])cc4)cs3)NC2=O)c1O`, the GI50 in the experiment with SN12C is 22.1 µM (inactive); in the experiment with NCI-H23 it was 11.7 µM (inactive); in the experiment with MOLT-4 it was 22.1 µM (inactive); in the experiment with CCRF-CEM it was 9.89 µM (inactive); in the experiment with T47D it was 4.66 µM (inactive); in the experiment with NCI/ADR-RES, 17.9 µM (inactive). The GI50 in the experiment on A498 is 23.4 µM (inactive); with MDA-MB-435, 19.5 µM (inactive); in the experiment on HCT-15 it was 15.6 µM; with BT-549, 4.23 µM (inactive); in the experiment on TK-10, 20.7 µM (inactive); in the experiment with MDA-N it was 22.2 µM (inactive). The GI50 in the experiment with M14 was 17 µM (inactive); in the experiment with OVCAR-5, 25.3 µM (inactive); in the experiment on SF-539, 7.82 µM (inactive); in the experiment on 786-0, 19.9 µM (inactive); in the experiment on NCI-H226, 14.9 µM (inactive).

For the compound `CSC1NNC2(C(=O)N1)c1ccccc1-c1ccccc12` (stereo unspecified), the GI50 with SN12C is > 10 µM (inactive); in the experiment on NCI-H23, > 10 µM (inactive); in the experiment with MOLT-4 it was > 10 µM (inactive); with CCRF-CEM, > 10 µM (inactive); with T47D, 5.53 µM (inactive); with NCI-H522, > 10 µM (inactive). The GI50 in the experiment with SNB-75 was > 10 µM (inactive); with NCI/ADR-RES, > 10 µM (inactive); with MDA-MB-435, > 10 µM (inactive); with HCT-15 it was > 10 µM; with BT-549, > 10 µM (inactive); in the experiment with TK-10, > 10 µM (inactive). Further, the GI50 in the experiment with MDA-N, in the experiment on M14, with OVCAR-4, in the experiment with SF-539, in the experiment with 786-0 and with NCI-H226 was > 10 µM (inactive) throughout.

With `CC1(C)CN(c2ccccc2)C(=O)C1OC(=O)[C@@]1(C)C[C@@H]2C=C[C@H]1C2` (stereo partly specified), the GI50 with SN12C is 21.3 µM (inactive); with NCI-H23, 25.2 µM (inactive); in the experiment on MOLT-4, 38.2 µM (inactive); in the experiment on CCRF-CEM, 23.3 µM (inactive); in the experiment on T47D, 32.7 µM (inactive); with SNB-75, 34.3 µM (inactive). The GI50 was 23 µM (inactive) with NCI/ADR-RES; 23.8 µM (inactive) in the experiment on A498; 20.2 µM (inactive) with MDA-MB-435; 22.1 µM in the experiment on HCT-15; 33.9 µM (inactive) in the experiment on BT-549; 30.7 µM (inactive) in the experiment with TK-10. The GI50 is 18.7 µM (inactive) in the experiment with MDA-N; 22 µM (inactive) with M14; 18.1 µM (inactive) with OVCAR-4; 28.1 µM (inactive) with OVCAR-5; 23.4 µM (inactive) in the experiment with SF-539; 21.8 µM (inactive) in the experiment with 786-0. For the same compound, the GI50 in the experiment with NCI-H226 is 23.3 µM (inactive).

`Cc1ccc(Nc2nc3ccccc3c(=O)n2N)cc1`: the GI50 in the experiment with SN12C, in the experiment with NCI-H23, in the experiment on MOLT-4, in the experiment with CCRF-CEM, with T47D and in the experiment with NCI-H522 was > 100 µM (inactive) throughout. Also, the GI50 with SNB-75 is 75 µM (inactive); with NCI/ADR-RES it was > 100 µM (inactive); in the experiment with MDA-MB-435 it was > 100 µM (inactive); in the experiment with HCT-15, > 100 µM; with BT-549, > 100 µM (inactive); with TK-10 it was > 100 µM (inactive). Besides, the GI50 in the experiment on MDA-N, in the experiment with M14, in the experiment with OVCAR-4, in the experiment with OVCAR-5, with SF-539 and with 786-0 was > 100 µM (inactive) in each case. For the same compound, the GI50 in the experiment on NCI-H226 is > 100 µM (inactive).

Turning to `C/C(=N\NC(=O)Nc1ccccc1Cl)c1ccc(O)cc1`, the GI50 was > 100 µM (inactive) in the experiment with SN12C; > 100 µM (inactive) in the experiment on NCI-H23; 7.85 µM (inactive) with MOLT-4; > 100 µM (inactive) with CCRF-CEM; > 100 µM (inactive) with T47D; > 100 µM (inactive) in the experiment with NCI-H522. Also, the GI50 with SNB-75 is 34.1 µM (inactive); in the experiment with NCI/ADR-RES it was > 100 µM (inactive); in the experiment with MDA-MB-435, > 100 µM (inactive); in the experiment on HCT-15, 2.28 µM; in the experiment on BT-549, > 100 µM (inactive); in the experiment on TK-10, > 100 µM (inactive). The GI50 with MDA-N, with M14, in the experiment with OVCAR-4, in the experiment on OVCAR-5, in the experiment on SF-539 and in the experiment with 786-0 was > 100 µM (inactive) in each case. Also, the GI50 with NCI-H226 was > 100 µM (inactive).

`CCOC(=O)N1C(=S)C(C(=O)OC)(C(=O)OC)N=C1C`: the GI50 with SN12C, with NCI-H23, in the experiment with MOLT-4, with CCRF-CEM, in the experiment with T47D and in the experiment with SNB-75 was > 100 µM (inactive) in each case. Also, the GI50 is > 100 µM (inactive) in the experiment with NCI/ADR-RES; > 100 µM (inactive) in the experiment with A498; > 100 µM (inactive) in the experiment on MDA-MB-435; > 100 µM in the experiment with HCT-15; > 100 µM (inactive) in the experiment with BT-549; > 100 µM (inactive) in the experiment with TK-10. The GI50 in the experiment with MDA-N, in the experiment with M14, in the experiment on OVCAR-4, with OVCAR-5, with 786-0 and with NCI-H226 was > 100 µM (inactive) each time.

Turning to `CC1(c2nc3cc(Cl)c(Cl)cc3[nH]2)CCC(C(=O)O)C(C)(C)O1` (stereo unspecified), the GI50 in the experiment with SN12C, with NCI-H23, in the experiment with MOLT-4, in the experiment on CCRF-CEM, with T47D and in the experiment on NCI-H522 was > 100 µM (inactive) in each case. For the same compound, the GI50 in the experiment with SNB-75 is > 100 µM (inactive); in the experiment with NCI/ADR-RES, > 100 µM (inactive); with MDA-MB-435 it was > 100 µM (inactive); in the experiment with HCT-15, > 100 µM; with BT-549, > 100 µM (inactive); with TK-10, > 100 µM (inactive). Moreover, the GI50 with MDA-N is > 100 µM (inactive); with M14 it was > 100 µM (inactive); in the experiment on OVCAR-4, 78.9 µM (inactive); in the experiment with OVCAR-5 it was > 100 µM (inactive); in the experiment on SF-539, > 100 µM (inactive); in the experiment on 786-0, > 100 µM (inactive). Moreover, in the experiment with NCI-H226, the GI50 is > 100 µM (inactive).

On to `O=C(O)c1cc2ccccc2c(/N=N/c2ccc(S(=O)(=O)O)cc2)c1O`, for which the GI50 in the experiment on SN12C, in the experiment with MOLT-4, in the experiment on CCRF-CEM, with T47D, in the experiment with NCI-H522 and with SNB-75 was > 100 µM (inactive) each time. In addition, the GI50 is > 100 µM (inactive) in the experiment on NCI/ADR-RES; > 100 µM (inactive) with MDA-MB-435; > 100 µM in the experiment on HCT-15; > 100 µM (inactive) with BT-549; > 100 µM (inactive) with TK-10; > 100 µM (inactive) with MDA-N. Further, the GI50 in the experiment with M14, in the experiment with OVCAR-4, with OVCAR-5, in the experiment on SF-539, with 786-0 and in the experiment on NCI-H226 was > 100 µM (inactive) each time.

With `CN(C(=O)CCC(=O)O)c1ccccc1C(=O)O`, the GI50 in the experiment with NCI-H23, in the experiment on MOLT-4, in the experiment on CCRF-CEM, with T47D, in the experiment with SNB-75 and in the experiment on NCI/ADR-RES was > 100 µM (inactive) throughout. Moreover, the GI50 in the experiment with A498 was > 100 µM (inactive); with MDA-MB-435 it was > 100 µM (inactive); with HCT-15, > 100 µM; with BT-549, > 100 µM (inactive); in the experiment with TK-10 it was > 100 µM (inactive); in the experiment with MDA-N, > 100 µM (inactive). For the same compound, the GI50 with M14, in the experiment on OVCAR-4, with OVCAR-5, in the experiment on SF-539, in the experiment with 786-0 and with NCI-H226 was > 100 µM (inactive) throughout.

On to `CN(C)CCCNC(=O)c1cc(NC(=O)c2cc(NC(=O)c3cc(NC(=O)CCCn4ccc(CO)c4CO)cn3C)cn2C)cn1C`, for which the GI50 in the experiment on SN12C is 6.18 µM (inactive); in the experiment on NCI-H23 it was 13.8 µM (inactive); in the experiment with MOLT-4 it was 4.74 µM (inactive); with CCRF-CEM, 3.73 µM (inactive); in the experiment on T47D it was 6.85 µM (inactive); in the experiment on NCI-H522, 2.37 µM (inactive). The GI50 is 5.01 µM (inactive) with SNB-75; > 100 µM (inactive) in the experiment with NCI/ADR-RES; 11.1 µM (inactive) in the experiment with MDA-MB-435; > 100 µM in the experiment with HCT-15; 2.64 µM (inactive) in the experiment on BT-549; 24.8 µM (inactive) with TK-10. Further, the GI50 in the experiment with MDA-N is 16.5 µM (inactive); with OVCAR-4 it was 19.5 µM (inactive); in the experiment on OVCAR-5 it was 3.99 µM (inactive); in the experiment on SF-539 it was 3.44 µM (inactive); with 786-0, 4.2 µM (inactive); in the experiment with NCI-H226 it was 2.97 µM (inactive).

The values above are taken from ChEMBL document CHEMBL1201862, “PubChem BioAssay data set” (2004).
